Results on three molecules are retold here after US20220315574A1, “Beta-Arrestin-Modulating Compounds and Methods of Using Same” (Duke University, priority 2019, published 2022).

Where a name gives a salt, the structure may show the parent alone.

Common to all, as to assay type: cell-based
In experiment [1] the target is T1, βarr2 recruitment to agonist-activated β2V2R (Homo sapiens, UniProt P32121).
T1 construct: host or cells: U2OS
Nature of the experiment: DiscoveRx PathHunter β-arrestin recruitment assay in U2OS cells. The note with it: series of compound concentrations, 30 min pretreatment, isoproterenol dose-response. As for the experimental part: β-arrestin recruitment to the agonist-activated receptor (02V2R) was measured using the DiscoveRx PathHunter β-arrestin assay (Ahn, S. et al. Allosteric “beta-blocker” isolated from a DNA-encoded small molecule library. Proc Natl Acad Sci U SA 114, 1708-1713, doi:10.1073/pnas.1620645114 (2017)). […] Agonist-stimulated recruitment of βarr2 to the receptor results in the formation of functionally active β-gal enzyme. Addition of substrate generates a chemiluminescence signal directly correlated to the extent of recruitment. U2OS cells co-expressing β2V2R and βarr2 were plated in 96-well clear-bottomed plates at a density of 25,000 cells per well (80 μL per well), 24 hours prior to compound treatment. On the day of experiment, cells were first treated with compound or vehicle for 30 min, followed by agonist (Iso) stimulation for 60 min at 37° C. Cells were then treated with PathHunter™ detection reagents for 90 min at 37° C., and luminescence signals were measured using a CLARIOstar microplate reader (BMG Labtech Inc., Cary, N.C.).
Background: Arrestin recruitment assays detect the binding of arrestin to an activated receptor.

Experiment [2] has as its system β2V2R-βarr internalization. Nature of the experiment: DiscoveRx PathHunter activated receptor endocytosis assay in U2OS cells. The note with it: series of compound concentrations, 30 min pretreatment, isoproterenol dose-response. On the procedure: β-arrestin-mediated activated receptor internalization was measure using the DiscoveRx PathHunter activated receptor endocytosis assay according to the manufacturer's protocols (DiscoverRx, Fremont, Calif.). Briefly, an Enzyme Acceptor (EA)-tagged βarr and a ProLink tag localized to endosomes are stably expressed in U2OS cells. Untagged β2V2R is transiently expressed (4 ug of DNA). The next day, cells (25,000 cells per well) were then seeded in white 96-well clear-bottomed assay plates and incubated for 24 h before experiments. On the day of experiment, cells were first treated with compound or vehicle for 30 min, followed by a series concentrations of agonist (Iso) stimulation for 60 min at 37° C. Receptor internalization was detected as luminescence resulting from the complementation of β-galactosidase fragments (Enzyme Acceptor and ProLink) within endosomes. Luminescence signals were measured on a CLARIOstar microplate reader using the PathHunter Detection kit (DiscoveRx).

The subject of experiment [3] is human AT1aR. Nature of the experiment: Intracellular calcium measurement, receptor desensitization. The note with it: AngII-induced calcium signal. On the procedure: Intracellular [Ca^2+] release was measured using FLIPR Calcium 6 with the FlexStation 3 microplate reader according to the manufacturer's instructions (Molecular Devices, LLC). Briefly, HEK293 cells stably expressing human AT1aR were seeded in poly-D-lysine-coated black 96-well assay plates (35,000 cells per well) and incubated for 24 hours. On the day of experiment, cell plates were loaded with the appropriate calcium kit reagents and then treated with βarr small molecule modulators or vehicle for 30 min. Basal fluorescence (FO) was measured, agonist was applied while fluorescence (F) intensity was monitored in real time.
(In general: Calcium assays in cells follow changes in intracellular calcium, usually with a dye or a luminescent sensor.)

Experiment [4] deals with ERK1/2. In words: Live cell ERK1/2 activation assay (HEK293 cells stably expressing β2AR). To be noted: for βarr1/2-dependent ERK activation through β2-adrenergic receptor: carvedilol stimulation after compound pretreatment. On the procedure: To assess the effect(s) of βarr small-molecule modulators on receptor-stimulated β-arr dependent ERK1/2 activation, HEK293 cells stably expressing β2AR plates were starved for 6 hours in serum-free medium prior to stimulation (Wisler, J. W. et al. A unique mechanism of beta-blocker action: carvedilol stimulates beta-arrestin signaling. Proc Natl Acad Sci USA 104, 16657-16662, doi:10.1073/pnas.0707936104 (2007); Wang, J. et al. Galphai is required for carvedilol-induced beta1 adrenergic receptor beta-arrestin biased signaling. Nat Commun 8, 1706, doi:10.1038/s41467-017-01855-z (2017)). Cells were pretreated with βarr small-molecule modulators or vehicle, then incubated for 30 min at 37° C. After stimulation with appropriate receptor ligand (carvedilol or isoproterenol) for indicated time points, reactions were terminated by the addition of Laemmli sample buffer. The cell lysates were sonicated for 15 sec (2×) and clarified by centrifugation 14,000×g (4° C., 15 min). Proteins were resolved on an SDS-PAGE gel, transferred to nitrocellulose membranes, and immunoblotted using rabbit polyclonal anti-phospho-p44/42 MAPK (ERK1/2) antibody (1:2000; Cell Signaling), anti-MAPK1/2 (ERK1/2) antibody (1:10,000; Millipore-Sigma), anti-β-arrestin1 antibody (A1CT; 1:3000) or anti-β-arrestin2 antibody (A1CT; 1:3000, Lefkowitz lab, Duke University). Protein bands on the membrane were detected with SuperSignal West Pico enhanced chemiluminescent substrate (Thermo Fisher) and captured using a ChemiDoc-XRS charge-coupled device camera system (Bio-Rad Laboratories). Bands were quantified by densitometry using Image Lab (Bio-Rad, Hercules, Calif.) and GraphPad Prism software was used for data analyses.
For experiments involving siRNA transfection and knockdown βarrs, after stimulation cells were lysed in ice-cold 1% NP-40 lysis buffer [20 mM tris-HCl (pH 7.4), 137 mM NaCl, 20% glycerol, 1% NP-40, 2 mM sodium orthovanadate, 1 mM phenylmethylsulfonyl fluoride, 10 mM sodium fluoride, aprotinin (10 μg/ml), leupeptin (5 μg/ml), and phosphatase inhibitors (Phos-STOP; Roche)], rotated for 45 min, and cleared of insoluble debris by centrifugation at 14,000×g (4° C., 15 min). After which the supernatant was collected, protein concentration determined, and equal amounts of cell lysate were mixed with 2×Laemmli sample buffer. Samples were analyzed afterwards essentially as described above.

T1 sequence (P32121 whole entry): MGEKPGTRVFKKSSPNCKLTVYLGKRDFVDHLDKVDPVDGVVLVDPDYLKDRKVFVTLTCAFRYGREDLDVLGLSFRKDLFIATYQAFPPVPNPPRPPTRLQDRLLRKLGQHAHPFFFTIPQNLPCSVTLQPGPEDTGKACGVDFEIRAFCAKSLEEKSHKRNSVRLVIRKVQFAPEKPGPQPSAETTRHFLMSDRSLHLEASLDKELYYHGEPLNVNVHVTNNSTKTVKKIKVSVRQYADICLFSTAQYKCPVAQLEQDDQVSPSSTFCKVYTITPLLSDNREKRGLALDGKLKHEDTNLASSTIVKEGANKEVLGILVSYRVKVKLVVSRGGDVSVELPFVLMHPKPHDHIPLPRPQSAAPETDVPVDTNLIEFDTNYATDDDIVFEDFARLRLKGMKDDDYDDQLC

Regarding `C=C1C(=O)C23[C@H](O)C1CC[C@H]2[C@]12COC3(O)[C@@H](O)[C@@H]1C(C)(C)CC[C@@H]2O` [Cmpd-5, (1R,2S,10S,11R,15S,18R)-9,10,15,18-tetrahydroxy-12,12-dimethyl-6-methylidene-17-oxapentacyclo[7.6.2.15,8.01,11.02,8]octadecan-7-one], the “maximal agonist induced βarr recruitment response” value in experiment [1] is recorded as “significantly diminished”. Moreover, the “maximal agonist induced receptor-βarr internalization response” value in experiment [2] was “significantly diminished”. In experiment [3], the “desensitization of AT1aR” value was “inhibited”. In experiment [4], the “βarr1/2-dependent ERK activation through β2-adrenergic receptor” value was “attenuate”.
With `CN(C)c1n/c(=N/Cc2ccco2)ss1` [Cmpd-30, 5-(furan-2-ylmethylimino)-N,N-dimethyl-1,2,4-dithiazol-3-amine;hydrobromide], in experiment [1], the “maximal agonist induced βarr recruitment response” value is recorded as “significantly diminished”. Moreover, the “maximal agonist induced receptor-βarr internalization response” value in experiment [2] is on record as “significantly diminished”. In addition, in experiment [3], the “desensitization of AT1aR” value is on record as “inhibited”. The EC50 (usually the concentration giving half of the maximal effect) in experiment [4] (Homo sapiens, HEK293, βarr-dependent but receptor-independent) amounted to 500 nM. The “basal phosphorylation of ERK1/2” value in experiment [4] (compound alone, absent of agonist) was “increased”. Besides, in experiment [4] (compound alone, decline observed at 30 minutes), the “time of peak ERK activation signal” value lay within 15 to 20 min. Moreover, the “compound-induced ERK1/2 phosphorylation after knockdown of βarr1/2” value in experiment [4] (βarr1/2 siRNA vs control siRNA) is “markedly impaired”.
Consider `C=C1C(=O)OC2CC3(C)OC3CC/C(C)=C\C(OC(C)=O)C12` (stereo not drawn) [Cmpd-64, [(8Z)-3,8-dimethyl-12-methylidene-13-oxo-4,14-dioxatricyclo[9.3.0.03,5]tetradec-8-en-10-yl] acetate], for which the “maximal agonist induced βarr recruitment response” value in experiment [1] was “significantly diminished”. Further, in experiment [2], the “maximal agonist induced receptor-βarr internalization response” value was “significantly diminished”. Further, the “desensitization of AT1aR” value in experiment [3] is “inhibited”. In experiment [4], the “βarr1/2-dependent ERK activation through β2-adrenergic receptor” value was “attenuate”.
